Measurements as given in patent US10065990B2, “Cyclic peptide compound, and preparation method, pharmaceutical composition and use thereof” (HANGZHOU GUANYU BIO-MEDICAL CO., LTD, priority 2013, dated 2018).
Read-outs that look alike come from different tables or passages of the source.

Tests used:
HDAC7 = molecular target: T1, HDAC7 (Homo sapiens, UniProt Q8WUI4); experiment: HDAC biochemical activity measurement (fluorescent substrate deacetylation);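 for all read-outs here: fluorogenic deacetylation assay using acetyl-lysine substrate at 20 µM, enzyme and compound incubated 30 min at 37 °C, then developer added, fluorescence read at 360/460 nm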; conditions: for IC50 HDAC7: 37° C. 30 minutes
T1 sequence (Q8WUI4 1-952): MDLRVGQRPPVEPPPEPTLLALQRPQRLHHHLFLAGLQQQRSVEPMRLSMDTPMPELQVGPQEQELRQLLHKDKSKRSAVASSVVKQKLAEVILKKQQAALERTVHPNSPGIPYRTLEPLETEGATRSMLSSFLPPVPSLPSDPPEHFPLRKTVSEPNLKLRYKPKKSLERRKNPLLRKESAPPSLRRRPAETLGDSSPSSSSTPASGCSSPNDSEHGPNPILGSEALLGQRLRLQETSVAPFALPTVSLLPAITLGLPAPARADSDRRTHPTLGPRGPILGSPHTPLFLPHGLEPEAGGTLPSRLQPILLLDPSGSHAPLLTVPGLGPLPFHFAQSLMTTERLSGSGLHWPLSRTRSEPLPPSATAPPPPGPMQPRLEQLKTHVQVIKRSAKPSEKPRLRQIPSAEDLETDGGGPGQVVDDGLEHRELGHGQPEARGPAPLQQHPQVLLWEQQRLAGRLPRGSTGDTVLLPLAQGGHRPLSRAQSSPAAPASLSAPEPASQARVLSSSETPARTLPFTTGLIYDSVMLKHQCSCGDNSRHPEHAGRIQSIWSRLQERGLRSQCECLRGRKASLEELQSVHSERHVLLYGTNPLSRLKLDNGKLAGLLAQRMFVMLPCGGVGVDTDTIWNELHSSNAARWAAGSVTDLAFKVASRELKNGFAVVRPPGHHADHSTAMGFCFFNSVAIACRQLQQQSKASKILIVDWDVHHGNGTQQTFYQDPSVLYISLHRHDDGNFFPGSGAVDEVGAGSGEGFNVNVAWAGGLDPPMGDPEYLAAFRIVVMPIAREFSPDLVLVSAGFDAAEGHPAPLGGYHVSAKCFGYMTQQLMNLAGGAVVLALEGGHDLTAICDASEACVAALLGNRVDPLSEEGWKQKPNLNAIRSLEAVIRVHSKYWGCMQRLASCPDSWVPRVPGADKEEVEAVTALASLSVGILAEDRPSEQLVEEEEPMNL

[1] = system: N-87 (human gastric cancer cells); experiment: MTT cancer cell growth inhibition; assay type: cell-based; conditions: Homo sapiens, 72 h, MTT, 72 hours incubation, N-87 cells; read-out: GI50 N-87
Excerpt: (§1) MTT assay principle is yellow MTT can penetrate membrane into the cell, succinic dehydrogenase of the mitochondria in living cells can make exogenous MTT reduction of insoluble in water of blue-violet acicular formazan for crystallization and deposition in the cell, crystallization can be dissolved dimethyl sulfoxide (DMSO) solution, detected its absorbance at 490 nm/570 nm wavelength by enzyme-linked immunosorbent assay, which can reflect the number of cells.
(§2) Using DMEM+10% FBS culture medium or using 1640+10% FBS culture, respectively.
(§3) a) Cells were seeded in 96-well plates with the inoculation of 1500/well, 190 μl/hole, 37° C., 5% of CO2 incubator overnight;
(§4) b) The next day each well was added 10 μl of different drugs. The final concentration of drug was 10^−5˜10^−10M, three parallel holes; 37° C., 5% CO2 culture incubator for 72 hours incubation;
(§5) c) Per well was added 20 μl 5 mg/ml of MTT, 37° C., 5% CO2 culture incubator for 4 hours incubation;
(§6) d) The supernatant was discarded. Each well was added 100 μl of DMSO and oscillation;
(§7) e) 570 nm readings. Calculate cell viability. GI50 calculation based on the results.

[2] = system: BGC-823 (human gastric cancer cells); experiment: MTT cancer cell growth inhibition; assay type: cell-based; conditions: Homo sapiens, BGC-823, 72 h, MTT, 72 hours incubation, read-out: GI50 BG
Excerpt: as §1, §2, §3, §4, §5, §6, §7

[3] = system: U937 (human leukemia cells); experiment: MTT cancer cell growth inhibition; assay type: cell-based; conditions: Homo sapiens, U-937, 72 h, MTT, 72 hours incubation, read-out: GI50 U93
Excerpt: as §1, §2, §3, §4, §5, §6, §7

[4] = system: MCF-7 (human breast cancer cells); experiment: MTT cancer cell growth inhibition; assay type: cell-based; conditions: Homo sapiens, MCF7, 72 h, 72 hours incubation, read-out: GI50 MCF
Excerpt: as §1, §2, §3, §4, §5, §6, §7

[5] = system: MOLT-4 (human acute lymphoblastic leukemia cells); experiment: MTT cancer cell growth inhibition; assay type: cell-based; conditions: Homo sapiens, MOLT-4, 72 h, MTT, 72 hours incubation, read-out: GI50 Mol
Excerpt: as §1, §2, §3, §4, §5, §6, §7

[6] = system: MDA-MB-231 (breast cancer cells); experiment: MTT cancer cell growth inhibition; assay type: cell-based; conditions: Homo sapiens, MDA-MB-231, 72 h, read-out: GI50 MDA-MB-231, MTT, 72 hours incubation, MDA-MB-231 cells
Excerpt: as §1, §2, §3, §4, §5, §6, §7

[7] = system: Huh-7 (human hepatoma cells); experiment: MTT cancer cell growth inhibition; assay type: cell-based; conditions: Homo sapiens, Huh-7, 72 h, MTT, 72 hours incubation, Huh-7 cells; read-out: GI50 Huh-7
Excerpt: as §1, §2, §3, §4, §5, §6, §7

[8] = system: H1975 (non-small cell lung adenocarcinoma); experiment: MTT cancer cell growth inhibition; assay type: cell-based; conditions: Homo sapiens, NCI-H1975, 72 h, MTT, 72 hours incubation, H1975 cells; read-out: GI50 H1975
Excerpt: as §1, §2, §3, §4, §5, §6, §7

[9] = system: PANC-1 (Pac-1, human pancreatic cancer cells); experiment: MTT cancer cell growth inhibition; assay type: cell-based; conditions: Homo sapiens, PANC-1, 72 h, MTT, 72 hours incubation, read-out: GI50 PAN
Excerpt: as §1, §2, §3, §4, §5, §6, §7

[10] = system: DU145 (human prostate cancer cells); experiment: MTT cancer cell growth inhibition; assay type: cell-based; conditions: Homo sapiens, DU-145, 72 h, MTT, 72 hours incubation, read-out: GI50 Du1
Excerpt: as §1, §2, §3, §4, §5, §6, §7

[11] = system: Hela (human cervical cancer cells); experiment: MTT cancer cell growth inhibition; assay type: cell-based; conditions: Homo sapiens, HeLa, 72 h, MTT, 72 hours incubation, read-out: GI50 Hela
Excerpt: as §1, §2, §3, §4, §5, §6, §7

[12] = system: Bel-7402 (human hepatoma cells); experiment: MTT cancer cell growth inhibition; assay type: cell-based; conditions: Homo sapiens, Bel-7402, 72 h, MTT, 72 hours incubation, Bel-7402 cells; read-out: GI50 Bel-7402
Excerpt: as §1, §2, §3, §4, §5, §6, §7

[13] = system: A549 (human lung cancer cells); experiment: MTT cancer cell growth inhibition; assay type: cell-based; conditions: Homo sapiens, A549, 72 h, MTT, 72 hours incubation, read-out: GI50 A54
Excerpt: as §1, §2, §3, §4, §5, §6, §7

[14] = system: KBM5-T315I (human chronic myelogenous leukemia); experiment: MTT cancer cell growth inhibition; assay type: cell-based; conditions: Homo sapiens, 72 h, MTT, 72 hours incubation, KBM5-T315I cells; read-out: GI50 KBM5-T315I
Excerpt: as §1, §2, §3, §4, §5, §6, §7

[15] = system: HCC827 (human non-small cell lung cancer cells); experiment: MTT cancer cell growth inhibition; assay type: cell-based; conditions: Homo sapiens, HCC827, 72 h, MTT, 72 hours incubation, HCC827 cells; read-out: GI50 HCC827
Excerpt: as §1, §2, §3, §4, §5, §6, §7

[16] = system: K562 (human leukemia cells); experiment: MTT cancer cell growth inhibition; assay type: cell-based; conditions: Homo sapiens, K562, 72 h, MTT, 72 hours incubation, K562 cells; read-out: GI50 K562
Excerpt: as §1, §2, §3, §4, §5, §6, §7

[17] = system: KBM-5 (human chronic myelogenous leukemia); experiment: MTT cancer cell growth inhibition; assay type: cell-based; conditions: Homo sapiens, KBM5, 72 h, MTT, 72 hours incubation, KBM-5 cells; read-out: GI50 KBM-5
Excerpt: as §1, §2, §3, §4, §5, §6, §7

[18] = system: lncap (prostate cancer cells); experiment: MTT cancer cell growth inhibition; assay type: cell-based; conditions: Homo sapiens, LNCaP, 72 h, MTT, 72 hours incubation, read-out: GI50 lnca
Excerpt: as §1, §2, §3, §4, §5, §6, §7

[19] = system: SGC-7901 (human gastric cancer cells); experiment: MTT cancer cell growth inhibition; assay type: cell-based; conditions: Homo sapiens, SGC-7901, 72 h, MTT, 72 hours incubation, SGC-7901 cells; read-out: GI50 SGC-7901
Excerpt: as §1, §2, §3, §4, §5, §6, §7

[20] = system: HT1080 (human fibrosarcoma cells); experiment: MTT cancer cell growth inhibition; assay type: cell-based; conditions: Homo sapiens, HT-1080, 72 h, MTT, 72 hours incubation, read-out: GI50 HT1
Excerpt: as §1, §2, §3, §4, §5, §6, §7

| Compound | IC50 HDAC7 (HDAC7) | GI50 [1] [nM] | GI50 ([2]; BGC-823 cells) [nM] | GI50 ([3]; U937 cells) [nM] | GI50 ([4]; MCF-7 cells) [nM] | GI50 ([5]; MOLT-4 cells) [nM] | GI50 [6] [nM] | GI50 [7] [nM] | GI50 [8] [nM] | GI50 ([9]; PANC-1 cells) [nM] | GI50 ([10]; DU145 cells) [nM] | GI50 ([11]; Hela cells) [nM] | GI50 [12] [nM] | GI50 ([13]; A549 cells) [nM] | GI50 [14] [nM] | GI50 [15] [nM] | GI50 [16] [nM] | GI50 [17] [nM] | GI50 ([18]; lncap cells) [nM] | GI50 [19] [nM] | other results |
| --- | --- | --- | --- | --- | --- | --- | --- | --- | --- | --- | --- | --- | --- | --- | --- | --- | --- | --- | --- | --- | --- |
| C/C=C1\NC(=O)c2nc(ccc2SC)CNC(=O)C[C@@H](/C=C/CCSC(C)=O)OC(=O)[C@H](Cc2ccccc2)NC1=O [Compound 186] | no activity | 28 | 40 | 40 | 50 | 30 | 39 | 16 | 63 | 50 | 100 | 70 | 52 | 30 | 21 | 89 | 39 | 36 | 30 | 43 | GI50 ([20]; HT1080 cells): 20 nM |
| C/C=C1\NC(=O)c2ccc(SCC)c(n2)CNC(=O)C[C@@H](/C=C/CCSC(=O)CCCCCC)OC(=O)[C@H](C(C)C)NC1=O [Compound 252] | – | 67 | 30 | 40 | 20 | 90 | 42 | 26 | 90 | 60 | 70 | 50 | 79 | 50 | 81 | 76 | 81 | 72 | 50 | 35 | IC50 (μM) HDAC7 (HDAC7): no activity; GI50 ([20]; HT1080 cells): 40 nM |
| C/C=C1\NC(=O)c2ccc(F)c(n2)CNC(=O)C[C@@H](/C=C/CCS)OC(=O)[C@H](CCCCN)NC1=O [Compound 118] | no activity | 61 | – | – | – | – | 31 | 41 | 35 | – | – | – | 27 | – | 57 | 53 | 29 | 41 | – | 39 | GI50 [2]: 60 nM; GI50 [3]: 30 nM; GI50 [4]: 60 nM; GI50 [5]: 20 nM; GI50 [9]: 80 nM; GI50 [10]: 40 nM; GI50 [11]: 70 nM; GI50 [13]: 30 nM; GI50 [18]: 20 nM; GI50 [20]: 80 nM |
